# In ChEMBL document CHEMBL3120161, “Antimycobacterial activity of nitrogen heterocycles derivatives: bipyridine derivatives. Part III” (Eur J Med Chem, 2014):
# Assays:
# Type in all cases: functional
# [1] = tested on: Mycobacterium tuberculosis; assay: Antimycobacterial activity against rifampin-resistant Mycobacterium tuberculosis H37Rv SRI 1367 at MIC after 7 days by broth microdilution assay relative to control
# [2] = tested on: Mycobacterium tuberculosis; assay: Antimycobacterial activity against ofloxacin-resistant Mycobacterium tuberculosis H37Rv SRI 4000 at MIC after 7 days by broth microdilution assay relative to control
# [3] = tested on: Mycobacterium tuberculosis; assay: Antimycobacterial activity against isoniazid-resistant Mycobacterium tuberculosis H37Rv SRI 1369 at MIC after 7 days by broth microdilution assay relative to control
# [4] = tested on: Mycobacterium tuberculosis; assay: Antimycobacterial activity against isoniazid-resistant Mycobacterium tuberculosis H37Rv SRI 1369 after 7 days by broth microdilution assay; settings: H37Rv SRI 1369, 168 h
# [5] = tested on: Mycobacterium tuberculosis; assay: Antimycobacterial activity against ofloxacin-resistant Mycobacterium tuberculosis H37Rv SRI 4000 after 7 days by broth microdilution assay; settings: H37Rv SRI 4000, 168 h
# [6] = tested on: Mycobacterium tuberculosis; assay: Antimycobacterial activity against rifampin-resistant Mycobacterium tuberculosis H37Rv SRI 1367 after 7 days by broth microdilution assay; settings: H37Rv SRI 1367, 168 h
SMILES,inhibition (INH) [1] [%],inhibition (INH) [2] [%],inhibition (INH) [3] [%],MIC [4] [µg/mL],MIC [5] [µg/mL],MIC [6] [µg/mL]
CCOC(=O)c1cc(C(=O)c2ccccc2)n2ccc(-c3cc[n+](CC(=O)c4ccc(OC)cc4)cc3)cc12.[Br-],65,61,60,4.69,1.17,1.17
CO[C@H]1/C=C/O[C@@]2(C)Oc3c(C)c(O)c4c(O)c(c(/C=N/N5CCN(C)CC5)c(O)c4c3C2=O)NC(=O)/C(C)=C\C=C\[C@H](C)[C@H](O)[C@@H](C)[C@@H](O)[C@@H](C)[C@H](OC(C)=O)[C@@H]1C [RIFAMPIN],–,80,56,0.02,0.05,–
NNC(=O)c1ccncc1 [ISONIAZID],92,–,–,–,–,0.02
